16 compounds from US20230092890A1, “1, 3, 4-Oxadiazole derivative compounds as histone deacetylase 6 inhibitor, and the pharmaceutical composition comprising the same” (Chong Kun Dang Pharmaceutical Corp., priority 2019, published 2023) can be followed below.

One test deals with T1, HDAC6 human recombinant (Homo sapiens, UniProt Q9UBN7).
T1 construct: purchased Calbiochem 382180
T1 sequence (Q9UBN7 1-1215): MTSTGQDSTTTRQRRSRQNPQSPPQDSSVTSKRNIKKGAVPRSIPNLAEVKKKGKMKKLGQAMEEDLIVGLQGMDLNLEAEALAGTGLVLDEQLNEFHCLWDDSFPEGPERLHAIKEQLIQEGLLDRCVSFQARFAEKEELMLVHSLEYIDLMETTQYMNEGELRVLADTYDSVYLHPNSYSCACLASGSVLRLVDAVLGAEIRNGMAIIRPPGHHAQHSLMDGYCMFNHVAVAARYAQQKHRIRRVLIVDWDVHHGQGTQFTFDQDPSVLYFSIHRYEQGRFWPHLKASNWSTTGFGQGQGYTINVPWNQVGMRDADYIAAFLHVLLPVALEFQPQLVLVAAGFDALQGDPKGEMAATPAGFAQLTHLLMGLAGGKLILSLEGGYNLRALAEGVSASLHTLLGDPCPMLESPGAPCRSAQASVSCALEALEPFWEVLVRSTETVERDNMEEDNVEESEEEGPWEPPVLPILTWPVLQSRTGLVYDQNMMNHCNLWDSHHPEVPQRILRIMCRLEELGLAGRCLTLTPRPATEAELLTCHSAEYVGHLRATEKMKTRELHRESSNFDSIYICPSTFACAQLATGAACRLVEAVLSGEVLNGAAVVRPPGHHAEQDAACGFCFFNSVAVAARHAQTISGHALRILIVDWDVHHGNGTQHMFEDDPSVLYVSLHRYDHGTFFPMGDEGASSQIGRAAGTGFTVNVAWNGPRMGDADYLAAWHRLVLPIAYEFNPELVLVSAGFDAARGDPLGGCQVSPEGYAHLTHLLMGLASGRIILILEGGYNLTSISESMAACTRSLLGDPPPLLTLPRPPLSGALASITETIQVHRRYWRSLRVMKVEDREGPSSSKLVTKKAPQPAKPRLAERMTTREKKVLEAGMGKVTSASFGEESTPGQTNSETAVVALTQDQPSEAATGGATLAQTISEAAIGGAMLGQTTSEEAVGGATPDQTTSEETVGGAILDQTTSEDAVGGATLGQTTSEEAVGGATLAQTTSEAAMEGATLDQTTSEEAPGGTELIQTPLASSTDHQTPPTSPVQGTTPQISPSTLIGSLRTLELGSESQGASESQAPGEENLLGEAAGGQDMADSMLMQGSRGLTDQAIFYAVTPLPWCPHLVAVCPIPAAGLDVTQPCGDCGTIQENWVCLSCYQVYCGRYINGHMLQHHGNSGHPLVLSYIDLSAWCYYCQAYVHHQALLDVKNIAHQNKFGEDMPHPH
Briefly: HDAC enzyme activity inhibition (in vitro), HDAC6 assay. It is filed as biochemical. As to conditions: samples at 0.1, 1, 10, 100 and 1000 nM; 37° C. 60 minutes; fluorescence Ex 390, Em 460; read-out: HDAC6 IC50. A digest of the protocol: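 HDAC6 human recombinant enzyme with fluorimetric substrate; […]. Reaction 60 min at 37° C, then developer 30 min at 37° C; fluorescence read at Ex 390/Em 460.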

Another test has as its target T2, HDAC1 (Homo sapiens, UniProt Q13547).
T2 construct: purchased Enzolifesciences BML-AK511
Description: HDAC enzyme activity inhibition (in vitro), HDAC1 Fluorimetric Drug Discovery Assay Kit. It is filed as biochemical. As to conditions: samples at 100, 1000 and 10000 nM; 37° C. 60 minutes; fluorescence Ex 390, Em 460; read-out: HDAC1 IC50. A digest of the protocol: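 HDAC1 was tested at 100, 1000 and 10000 nM and recombinant human HDAC6 at 0.1, 1, 10, 100 and 1000 nM. Enzyme reactions ran 60 min at 37° C, then developer was added for 30 min at 37° C, and fluorescence (Ex 390, Em 460) was read.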

T2 sequence (Q13547 whole entry): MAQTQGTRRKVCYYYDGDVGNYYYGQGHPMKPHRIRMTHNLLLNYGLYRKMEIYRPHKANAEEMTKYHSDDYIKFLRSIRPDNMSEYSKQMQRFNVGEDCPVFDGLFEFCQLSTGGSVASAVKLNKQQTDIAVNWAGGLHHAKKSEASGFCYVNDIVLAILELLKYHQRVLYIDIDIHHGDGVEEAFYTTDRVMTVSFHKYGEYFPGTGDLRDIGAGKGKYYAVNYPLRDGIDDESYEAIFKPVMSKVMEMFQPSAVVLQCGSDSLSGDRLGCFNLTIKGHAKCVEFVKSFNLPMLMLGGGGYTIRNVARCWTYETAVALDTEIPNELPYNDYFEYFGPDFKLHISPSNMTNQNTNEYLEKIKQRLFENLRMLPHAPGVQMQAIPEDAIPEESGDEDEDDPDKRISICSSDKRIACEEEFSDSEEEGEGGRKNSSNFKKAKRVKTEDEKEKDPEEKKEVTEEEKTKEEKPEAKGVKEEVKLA

Turning to `CN1CCC(n2c(=O)n(Cc3ccc(-c4nnc(C(F)F)o4)cn3)c3cc(F)c(-c4cc5ccccc5n4C(=O)OC(C)(C)C)cc32)CC1` [Compound 253, tert-butyl 2-(1-((5-(5-(difluoromethyl)-1,3,4-oxadiazole-2-yl)pyridine-2-yl)methyl)-6-fluoro-3-(1-methylpiperidine-4-yl)-2-oxo-2,3-dihydro-1H-benzo[d]imidazole-5-yl)-1H-indole-1-carboxylate], the figures for the 50% inhibitory concentration (IC50) on HDAC6 human recombinant and on HDAC1 were 271 nM and > 10000 nM, respectively.

With `CN1CCC(n2c(=O)n(Cc3ccc(-c4nnc(C(F)F)o4)cn3)c3cc(F)c(-c4cn(C(=O)OC(C)(C)C)c5ccc(Cl)cc45)cc32)CC1` [Compound 254], the figures for the half-maximal inhibitory concentration (IC50) on HDAC6 human recombinant and at HDAC1 were 472 nM and > 10000 nM, respectively.

Take `CN1CCC(n2c(=O)n(Cc3ccc(-c4nnc(C(F)F)o4)cn3)c3cc(F)c(-c4ccc5c(cnn5C(=O)OC(C)(C)C)c4)cc32)CC1` [Compound 255, tert-butyl 5-(1-((5-(5-(difluoromethyl)-1,3,4-oxadiazole-2-yl)pyridine-2-yl)methyl)-6-fluoro-3-(1-methylpiperidine-4-yl)-2-oxo-2,3-dihydro-1H-benzo[d]imidazole-5-yl)-1H-indazole-1-carboxylate]: the 50% inhibitory concentration (IC50) at HDAC6 human recombinant was 48 nM; at HDAC1, > 10000 nM.

`CN1CCC(n2c(=O)n(Cc3ccc(-c4nnc(C(F)F)o4)cn3)c3cc(F)c(-c4ccc5[nH]ncc5c4)cc32)CC1` [Compound 256, 1-((5-(5-(difluoromethyl)-1,3,4-oxadiazole-2-yl)pyridine-2-yl)methyl)-6-fluoro-5-(1H-indazole-5-yl)-3-(1-methylpiperidine-4-yl)-1,3-dihydro-2H-benzo[d]imidazole-2-one]: the figures for the half-inhibitory concentration (IC50) at HDAC6 human recombinant and on HDAC1 were 8 nM and > 10000 nM, respectively.

Take `CN1CC(n2c(=O)n(Cc3ccc(-c4nnc(C(F)F)o4)cn3)c3cc(F)c(-c4cccc5[nH]ccc45)cc32)C1` [Compound 257, 1-((5-(5-(difluoromethyl)-1,3,4-oxadiazole-2-yl)pyridine-2-yl)methyl)-6-fluoro-5-(1H-indole-4-yl)-3-(1-methylazetidine-3-yl)-1,3-dihydro-2H-benzo[d]imidazole-2-one]: the half-maximal inhibitory concentration (IC50) is 12 nM on HDAC6 human recombinant and > 10000 nM on HDAC1.

For the compound `CN1CC(n2c(=O)n(Cc3ccc(-c4nnc(C(F)F)o4)cn3)c3cc(F)c(-c4cccnc4)cc32)C1` [Compound 258, 1-((5-(5-(difluoromethyl)-1,3,4-oxadiazole-2-yl)pyridine-2-yl)methyl)-6-fluoro-3-(1-methylazetidine-3-yl)-5-(pyridine-3-yl)-1,3-dihydro-2H-benzo[d]imidazole-2-one], the results for the half-inhibitory concentration (IC50) at HDAC6 human recombinant and at HDAC1 were 13 nM and > 10000 nM, respectively.

For the compound `CN1CC(n2c(=O)n(Cc3ccc(-c4nnc(C(F)F)o4)cn3)c3cc(F)c(-c4ccncc4)cc32)C1` [Compound 259, 1-((5-(5-(difluoromethyl)-1,3,4-oxadiazole-2-yl)pyridine-2-yl)methyl)-6-fluoro-3-(1-methylazetidine-3-yl)-5-(pyridine-4-yl)-1,3-dihydro-2H-benzo[d]imidazole-2-one], the IC50 is 14 nM on HDAC6 human recombinant and > 10000 nM on HDAC1.

Consider `CC(C)N1CCN(c2cc3c(cc2F)n(Cc2ccc(-c4nnc(C(F)F)o4)cn2)c(=O)n3C)CC1` [Compound 261, 1-((5-(5-(difluoromethyl)-1,3,4-oxadiazole-2-yl)pyridine-2-yl)methyl)-6-fluoro-5-(4-isopropylpiperazine-1-yl)-3-methyl-1,3-dihydro-2H-benzo[d]imidazole-2-one], for which the IC50 was 57 nM on HDAC6 human recombinant and > 10000 nM on HDAC1.

Turning to `Cn1c(=O)n(Cc2ccc(-c3nnc(C(F)F)o3)cn2)c2cc(F)c(N3CCN(CC(F)(F)C(F)F)CC3)cc21` [Compound 262, 1-((5-(5-(difluoromethyl)-1,3,4-oxadiazole-2-yl)pyridine-2-yl)methyl)-6-fluoro-3-methy 1-5-(4-(2,2,3,3-tetrafluoropropyl)piperazine-1-yl)-1,3-dihydro-2H-benzo[d]imidazole-2-one], the half-inhibitory concentration (IC50) at HDAC6 human recombinant was 107 nM; at HDAC1 it was > 10000 nM.

As for `Cn1c(=O)n(Cc2ccc(-c3nnc(C(F)F)o3)cn2)c2cc(F)c(N3CCN(CC(F)(F)F)CC3)cc21` [Compound 263, 1-((5-(5-(difluoromethyl)-1,3,4-oxadiazole-2-yl)pyridine-2-yl)methyl)-6-fluoro-3-methy 1-5-(4-(2,2,2-trifluoroethyl)piperazine-1-yl)-1,3-dihydro-2H-benzo[d]imidazole-2-one], the figures for the IC50 on HDAC6 human recombinant and at HDAC1 were 59 nM and > 10000 nM, respectively.

Consider `Cn1c(=O)n(Cc2ccc(-c3nnc(C(F)F)o3)cn2)c2cc(F)c(N3CCN(C4COC4)CC3)cc21` [Compound 264, 1-((5-(5-(difluoromethyl)-1,3,4-oxadiazole-2-yl)pyridine-2-yl)methyl)-6-fluoro-3-methy 1-5-(4-(oxetan-3-yl)piperazine-1-yl)-1,3-dihydro-2H-benzo[d]imidazole-2-one], for which the IC50 is 61 nM at HDAC6 human recombinant and > 10000 nM at HDAC1.

On to `O=c1oc2cc(Cl)ccc2n1Cc1ccc(-c2nnc(C(F)F)o2)cn1` [Compound 265, 6-chloro-3-((5-(5-(difluoromethyl)-1,3,4-oxadiazole-2-yl)pyridine-2-yl)methyl)benzo[d]oxazole-2(3H)-one], for which the IC50 was 46 nM on HDAC6 human recombinant and > 10000 nM at HDAC1.

Consider `Cn1c(=O)n(Cc2ccc(-c3nnc(C(F)F)o3)cn2)c2cc(F)c(N3CCN(C(=O)CO)CC3)cc21` [Compound 266, 1-((5-(5-(difluoromethyl)-1,3,4-oxadiazole-2-yl)pyridine-2-yl)methyl)-6-fluoro-5-(4-(2-hydroxyacetyl)piperazine-1-yl)-3-methyl-1,3-dihydro-2H-benzo[d]imidazole-2-one], for which the 50% inhibitory concentration (IC50) on HDAC6 human recombinant was 39 nM; on HDAC1, > 10000 nM.

For `O=c1n(CCN2CCOCC2)c2cc(-c3cccnc3)c(F)cc2n1Cc1ccc(-c2nnc(C(F)F)o2)cn1` [Compound 267, 1-((5-(5-(difluoromethyl)-1,3,4-oxadiazole-2-yl)pyridine-2-yl)methyl)-6-fluoro-3-(2-morpholinoethyl)-5-(pyridine-3-yl)-1,3-dihydro-2H-benzo[d]imidazole-2-one], the IC50 is 42 nM at HDAC6 human recombinant and > 10000 nM at HDAC1.

Turning to `CN1CC[C@H](n2c(=O)n(Cc3ccc(-c4nnc(C(F)F)o4)cn3)c3cc(F)c(-c4cccnc4)cc32)C1` [Compound 268, (S)-1-((5-(5-(difluoromethyl)-1,3,4-oxadiazole-2-yl)pyridine-2-yl)methyl)-6-fluoro-3-(1-methylpyrrolidine-3-yl)-5-(pyridine-3-yl)-1,3-dihydro-2H-benzo[d]imidazole-2-one], the half-maximal inhibitory concentration (IC50) was 20 nM on HDAC6 human recombinant and > 10000 nM at HDAC1.

As for `O=c1n(CCN2CCOCC2)c2cc(-c3cccc4[nH]ccc34)c(F)cc2n1Cc1ccc(-c2nnc(C(F)F)o2)cn1` [Compound 269, 1-((5-(5-(difluoromethyl)-1,3,4-oxadiazole-2-yl)pyridine-2-yl)methyl)-6-fluoro-5-(1H-indole-4-yl)-3-(2-morpholinoethyl)-1,3-dihydro-2H-benzo[d]imidazole-2-one], the half-inhibitory concentration (IC50) was 6 nM at HDAC6 human recombinant and > 10000 nM at HDAC1.

As a reminder, the IC50 is the concentration that inhibits the measured activity by half.
